{"source": "paper PMC12280724", "about": "(Frontiers in Pharmacology, 2025)", "test": "In vivo biodistribution of [^99mTc]Tc-carvedilol in healthy Swiss albino mice", "settings": "for [^99mTc]Tc-carvedilol percentages of injected dose per Gram organ: i.v. tail vein", "description": "For biodistribution and receptor occupancy studies, 24 healthy adult Swiss albino mice (12 males and 12 females, aged 10–12 weeks, weighing 25–30 g) were obtained from the Egyptian National Research Center. Mice outside the 25–30 g weight range were excluded to ensure consistency in the biodistribution outcomes. Prior to the study, animals were housed in groups of four with ad libitum access to food and water and underwent a 2-week acclimatization period. After this adaptation phase, the mice were randomly assigned to the study groups using the lot-drawing method.\nGiven ^99mTc’s physical half-life of approximately 6 h, shorter imaging and sampling intervals are generally preferred to maximize radioactive signal fidelity and minimize decay-related variability. At 24 h post-injection, the residual ^99mTc activity could fall below quantifiable thresholds, potentially compromising the precision of biodistribution data. To prevent this, all data collection was restricted to early post-injection intervals—specifically […]—when radioactivity levels remain within optimal detection ranges for gamma counting. By omitting the 24 h time point altogether, the study design ensured that the radiotracer signal would be robust enough to yield statistically reliable biodistribution profiles without being confounded by the isotope’s exponential decay. Additionally, prior pilot studies were conducted to empirically determine the time window during which the radiochemical integrity and quantification signal-to-noise ratio remained analytically valid. These informed the exclusion of late-phase sampling and reinforced confidence in the reliability of kinetic data collected within the defined 6 h observation window. Therefore, six mice were euthanized at each selected time point via standardized cervical dislocation performed by trained personnel in accordance with institutional animal care guidelines. The procedure followed the AVMA Guidelines for the Euthanasia of Animals ([Kirkwood, 2013]), ensuring it was rapid, humane, and reproducible. To ensure procedural consistency, all cervical dislocations were performed by the same experienced researcher, following pre-established protocols that involved correct animal positioning, anatomical landmark identification, and verification of death through cessation of heartbeat and respiration. Immediately postmortem, body weight was recorded, and blood was collected via cardiac puncture.\nOrgan harvesting included the collection of the heart, liver, lungs, kidneys, spleen, stomach, intestines, muscle (right leg), bone, and brain. Following dissection, tissues were gently rinsed with isotonic saline to remove residual blood, promptly weighed, kept at low temperatures, and immediately subjected to gamma counting to preserve radiochemical integrity and avoid post-collection decay artifacts. No storage or freezing was used to prevent degradation or leakage of [^99mTc]Tc-carvedilol. Sample processing occurred in a shielded, on-site laboratory adjacent to the dissection area, ensuring minimal delay—typically less than 2 to 3 minutes—between collection and measurement.\nTo ensure methodological rigor and reproducibility, both experimental and computational components of the study were supported by a structured statistical framework. A total of 24 healthy albino mice (12 males, 12 females), aged 10–12 weeks and weighing 25 ± 3 g, were selected based on uniform health status, age, and weight to minimize inter-animal variability. Animals were maintained under controlled laboratory conditions (12-h light/dark cycle, standardized humidity, and temperature) with unrestricted access to food and water. For biodistribution analysis, animals were randomly assigned to four experimental groups, each consisting of six mice, each representing a distinct post-injection time point (15, 30, 60, and 120 min). […]", "note": "Where “and” joins values, the source holds several entries; their conditions need not be identical. Identical values can stand only once. Marks after values point to notes of the source that are not given here."}
{"smiles": "COc1ccccc1OCC[N]1CC(COc2cccc3[nH]c4ccccc4c23)[O][99Tc]12(=[O])[O]C(COc1cccc3[nH]c4ccccc4c13)C[N]2CCOc1ccccc1OC", "note": "(racemic) [[^99mTc]Tc-carvedilol]", "values": [{"measurement": "Residual [^99mTc]Tc-carvedilol percentages of injected dose per Gram in non-targeted organs", "setting": "Blood row, 30 min post-injection", "result": "96.021 ± 0.01", "unit": "% ID/g"}, {"measurement": "Residual [^99mTc]Tc-carvedilol percentages of injected dose per Gram in non-targeted organs", "setting": "Blood row, 60 min post-injection", "result": "92.710 ± 0.01", "unit": "% ID/g"}, {"measurement": "Residual [^99mTc]Tc-carvedilol percentages of injected dose per Gram in non-targeted organs", "setting": "Blood row, 120 min post-injection", "result": "94.008 ± 0.02", "unit": "% ID/g"}, {"measurement": "[^99mTc]Tc-carvedilol percentages of injected dose per Gram organ", "setting": "Blood, 15 min post-injection", "result": "19.895 ± 0.020 ^a % ID/g organ"}, {"measurement": "[^99mTc]Tc-carvedilol percentages of injected dose per Gram organ", "setting": "Blood, 30 min post-injection", "result": "3.969 ± 0.052", "unit": "% ID/g organ"}, {"measurement": "[^99mTc]Tc-carvedilol percentages of injected dose per Gram organ", "setting": "Blood, 60 min post-injection", "result": "7.290 ± 0.052", "unit": "% ID/g organ"}, {"measurement": "[^99mTc]Tc-carvedilol percentages of injected dose per Gram organ", "setting": "Blood, 120 min post-injection", "result": "5.972 ± 0.131", "unit": "% ID/g organ"}, {"measurement": "[^99mTc]Tc-carvedilol percentages of injected dose per Gram organ", "setting": "Bone, 15 min post-injection", "result": "0.322 ± 0.035", "unit": "% ID/g organ"}, {"measurement": "[^99mTc]Tc-carvedilol percentages of injected dose per Gram organ", "setting": "Bone, 30 min post-injection", "result": "0.963 ± 0.215", "unit": "% ID/g organ"}, {"measurement": "[^99mTc]Tc-carvedilol percentages of injected dose per Gram organ", "setting": "Bone, 60 min post-injection", "result": "0.675 ± 0.215", "unit": "% ID/g organ"}, {"measurement": "[^99mTc]Tc-carvedilol percentages of injected dose per Gram organ", "setting": "Bone, 120 min post-injection", "result": "2.703 ± 0.019", "unit": "% ID/g organ"}, {"measurement": "Residual [^99mTc]Tc-carvedilol percentages of injected dose per Gram in non-targeted organs", "setting": "Brain row, 15 min post-injection", "result": "99.359 ± 0.01", "unit": "% ID/g"}, {"measurement": "Residual [^99mTc]Tc-carvedilol percentages of injected dose per Gram in non-targeted organs", "setting": "Brain row, 30 min post-injection", "result": "98.409 ± 0.03", "unit": "% ID/g"}, {"measurement": "Residual [^99mTc]Tc-carvedilol percentages of injected dose per Gram in non-targeted organs", "setting": "Brain row, 60 min post-injection", "result": "97.103 ± 0.01", "unit": "% ID/g"}, {"measurement": "Residual [^99mTc]Tc-carvedilol percentages of injected dose per Gram in non-targeted organs", "setting": "Brain row, 120 min post-injection", "result": "99.679 ± 0.02", "unit": "% ID/g"}, {"measurement": "[^99mTc]Tc-carvedilol percentages of injected dose per Gram organ", "setting": "Brain, 15 min post-injection", "result": "0.631 ± 0.020", "unit": "% ID/g organ"}, {"measurement": "[^99mTc]Tc-carvedilol percentages of injected dose per Gram organ", "setting": "Brain, 30 min post-injection", "result": "1.561 ± 0.008", "unit": "% ID/g organ"}, {"measurement": "[^99mTc]Tc-carvedilol percentages of injected dose per Gram organ", "setting": "Brain, 60 min post-injection", "result": "2.895 ± 0.391", "unit": "% ID/g organ"}, {"measurement": "[^99mTc]Tc-carvedilol percentages of injected dose per Gram organ", "setting": "Brain, 120 min post-injection", "result": "0.301 ± 0.110", "unit": "% ID/g organ"}, {"measurement": "Residual [^99mTc]Tc-carvedilol percentages of injected dose per Gram in non-targeted organs", "setting": "Heart row, 15 min post-injection", "result": "72.467 ± 0.02 ^a % ID/g"}, {"measurement": "Residual [^99mTc]Tc-carvedilol percentages of injected dose per Gram in non-targeted organs", "setting": "Heart row, 30 min post-injection", "result": "92.707 ± 0.02", "unit": "% ID/g"}, {"measurement": "Residual [^99mTc]Tc-carvedilol percentages of injected dose per Gram in non-targeted organs", "setting": "Heart row, 60 min post-injection", "result": "97.838 ± 0.03", "unit": "% ID/g"}, {"measurement": "Residual [^99mTc]Tc-carvedilol percentages of injected dose per Gram in non-targeted organs", "setting": "Heart row, 120 min post-injection", "result": "96.414 ± 0.07", "unit": "% ID/g"}, {"measurement": "[^99mTc]Tc-carvedilol percentages of injected dose per Gram organ", "setting": "Heart, 15 min post-injection", "result": "27.533 % ID/g organ and 27.533 ± 0.931 % ID/g organ and 27.533 ± 0.931 ^a % ID/g organ"}, {"measurement": "[^99mTc]Tc-carvedilol percentages of injected dose per Gram organ", "setting": "Heart, 30 min post-injection", "result": "7.273 ± 0.006", "unit": "% ID/g organ"}, {"measurement": "[^99mTc]Tc-carvedilol percentages of injected dose per Gram organ", "setting": "Heart, 60 min post-injection", "result": "2.161 ± 0.006", "unit": "% ID/g organ"}, {"measurement": "[^99mTc]Tc-carvedilol percentages of injected dose per Gram organ", "setting": "Heart, 120 min post-injection", "result": "3.516 ± 0.110", "unit": "% ID/g organ"}, {"measurement": "Residual [^99mTc]Tc-carvedilol percentages of injected dose per Gram in non-targeted organs", "setting": "Intestines row, 15 min post-injection", "result": "95.435 ± 0.09", "unit": "% ID/g"}, {"measurement": "Residual [^99mTc]Tc-carvedilol percentages of injected dose per Gram in non-targeted organs", "setting": "Intestines row, 30 min post-injection", "result": "96.612 ± 0.03", "unit": "% ID/g"}, {"measurement": "Residual [^99mTc]Tc-carvedilol percentages of injected dose per Gram in non-targeted organs", "setting": "Intestines row, 60 min post-injection", "result": "92.604 ± 0.04", "unit": "% ID/g"}, {"measurement": "Residual [^99mTc]Tc-carvedilol percentages of injected dose per Gram in non-targeted organs", "setting": "Intestines row, 120 min post-injection", "result": "94.643 ± 0.01", "unit": "% ID/g"}, {"measurement": "[^99mTc]Tc-carvedilol percentages of injected dose per Gram organ", "setting": "Intestines, 15 min post-injection", "result": "4.507 ± 0.521", "unit": "% ID/g organ"}, {"measurement": "[^99mTc]Tc-carvedilol percentages of injected dose per Gram organ", "setting": "Intestines, 30 min post-injection", "result": "3.358 ± 0.792", "unit": "% ID/g organ"}, {"measurement": "[^99mTc]Tc-carvedilol percentages of injected dose per Gram organ", "setting": "Intestines, 60 min post-injection", "result": "7.355 ± 0.792", "unit": "% ID/g organ"}, {"measurement": "[^99mTc]Tc-carvedilol percentages of injected dose per Gram organ", "setting": "Intestines, 120 min post-injection", "result": "5.347 ± 0.521", "unit": "% ID/g organ"}, {"measurement": "Residual [^99mTc]Tc-carvedilol percentages of injected dose per Gram in non-targeted organs", "setting": "Kidneys row, 30 min post-injection", "result": "67.207 ± 0.04 ^a % ID/g"}, {"measurement": "Residual [^99mTc]Tc-carvedilol percentages of injected dose per Gram in non-targeted organs", "setting": "Kidneys row, 60 min post-injection", "result": "75.608 ± 0.01", "unit": "% ID/g"}, {"measurement": "Residual [^99mTc]Tc-carvedilol percentages of injected dose per Gram in non-targeted organs", "setting": "Kidneys row, 120 min post-injection", "result": "70.660 ± 0.05", "unit": "% ID/g"}, {"measurement": "[^99mTc]Tc-carvedilol percentages of injected dose per Gram organ", "setting": "Kidneys, 15 min post-injection", "result": "2.764 ± 0.012", "unit": "% ID/g organ"}, {"measurement": "[^99mTc]Tc-carvedilol percentages of injected dose per Gram organ", "setting": "Kidneys, 30 min post-injection", "result": "32.753 ± 0.345 % ID/g organ and 32.753 ± 0.345 ^a % ID/g organ"}]}
